Experimental data published in patent publication US20090142323A1, “METHODS FOR TREATING A DISORDER BY REGULATING GPRC6A” (priority 2007, published 2009).

Key:
GPRC6A [1] = target: T1, GPRC6A (Mus musculus, UniProt Q8K4Z6); test: phospho-ERK activation in HEK-293 cells transfected with GPRC6A (immunoblot); type: cell-based; design: expressed in transfected cells; host or cells: HEK-293; details: for inhibition of testosterone stimulated GPRC6A-mediated activation of phospho-ERK: 10 μM PD89059, 50 μM Ly294002, 2 μM U73122, 10 μM PP-1; for block of GPRC6A-mediated extracellular testosterone stimulated signaling: either phospho-ERK or SRE-luciferase as read-outs
T1 sequence (Q8K4Z6 21-928): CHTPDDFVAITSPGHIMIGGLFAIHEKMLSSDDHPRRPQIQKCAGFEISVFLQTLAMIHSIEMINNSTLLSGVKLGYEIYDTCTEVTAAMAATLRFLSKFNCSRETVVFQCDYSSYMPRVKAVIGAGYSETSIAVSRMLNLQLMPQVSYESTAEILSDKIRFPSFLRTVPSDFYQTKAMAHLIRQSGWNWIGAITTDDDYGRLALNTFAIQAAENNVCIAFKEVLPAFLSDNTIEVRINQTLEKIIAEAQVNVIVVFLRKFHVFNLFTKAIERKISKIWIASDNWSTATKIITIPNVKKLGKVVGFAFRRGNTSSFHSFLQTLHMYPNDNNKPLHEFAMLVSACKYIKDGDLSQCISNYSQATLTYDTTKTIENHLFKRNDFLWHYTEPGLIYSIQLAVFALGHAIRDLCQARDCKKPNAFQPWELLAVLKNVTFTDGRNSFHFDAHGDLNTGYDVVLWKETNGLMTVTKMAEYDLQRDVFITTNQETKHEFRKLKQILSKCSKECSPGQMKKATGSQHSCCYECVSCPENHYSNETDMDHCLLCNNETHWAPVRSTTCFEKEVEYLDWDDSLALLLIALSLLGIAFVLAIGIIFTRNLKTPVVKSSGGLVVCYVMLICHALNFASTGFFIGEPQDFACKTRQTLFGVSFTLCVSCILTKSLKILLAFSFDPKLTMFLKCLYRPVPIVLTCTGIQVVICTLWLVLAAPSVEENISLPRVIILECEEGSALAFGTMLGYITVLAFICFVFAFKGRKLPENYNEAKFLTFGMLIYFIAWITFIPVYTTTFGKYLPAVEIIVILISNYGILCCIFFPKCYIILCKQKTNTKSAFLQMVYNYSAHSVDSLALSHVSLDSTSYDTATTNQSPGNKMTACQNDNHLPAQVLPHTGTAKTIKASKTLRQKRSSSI
Protocol: (§1) Equal amounts of lysates were subjected to 10% SDS-PAGE, and phospho-ERK1/2 levels were determined by immunoblotting using antiphospho-ERK1/2 mitogen-activated protein kinase antibody (Cell Signaling Technology). […] An anti-peptide antibody was raised in a rabbit against a peptide ([…] (SEQ ID NO: 27)) corresponding to a sequence in the extracellular domain of mouse GPRC6A (in exon 1 of mouse GPRC6A gene) produced by Abgent (San Diego, Calif.). For phospho-ERK, the phospho-ERK1/2 levels were determined by immunoblotting using anti-phospho-ERK1/2 mitogen-activated protein kinase antibody (Cell Signaling Technology). Urinary β2-microglobulin was detected by rabbit polyclonal anti-β2-microglobulin antibody (Abcam Inc.). For aromatase expression analysis, the rabbit polyclonal anti-aromatase antibody (Abcam Inc.) and goat anti-rabbit IgG HRP secondary antibody (Santa Cruz Biotechnology Inc.) were used. Mouse anti-Actin antibody (Santa Cruz Biotechnology Inc.) was used for control protein loading.

GPRC6A [2] = target: T1, GPRC6A; test: SRE-luciferase reporter in HEK-293 cells co-transfected with pcDNA3.mGPRC6A; type: cell-based; design: expressed in transfected cells; host or cells: HEK-293; details: for inhibition of R1881 stimulated GPRC6A-mediated activation of luciferase: SRE-luciferase
Protocol: HEK-293 cells were co-transfected with pcDNA3.mGPRC6A and SRE-luciferase reporter gene plasmid. […] Luciferase activity was assessed after 6 h of stimulation. The luciferase activity in cell extracts was measured using the luciferase assay system (Promega) following the manufacturer's protocol using a BG-luminometer (Gem Biomedical, Inc., Hamden, Conn.).

[3] = test system: LNCaP prostate cancer cell line; details: 10 nM, within minutes; cited from earlier work
GPRC6A [4] = target: T1, GPRC6A; test: phospho-Src and phospho-Raf-1 western blot, GPRC6A-mediated; type: cell-based; design: expressed in transfected cells
Excerpt: Several physiological processes arising as a result of the rapid action of the Src-Ras-ERK signaling pathway in steroids non-genomic action also have been reported. To define the role of GPRC6A in androgen-mediated cell signaling activation, we examine the Src and Raf-1 are involved in GPRC6A-mediated androgen stimulated intercellular signaling pathway.

HEK-293 cells = test: phospho-ERK in non-transfected HEK-293 control cells; type: cell-based, human; details: control HEK293, no GPRC6A
Protocol: as §1

[5] = target: T2, calcium sensing receptor (CASR) (Rattus norvegicus, UniProt P48442); test: phospho-ERK in HEK-293 cells transfected with calcium sensing receptor; type: cell-based; details: HEK293 transfected with CASR
T2 construct: expressed in transfected cells; host or cells: HEK-293
T2 sequence (P48442 20-1079): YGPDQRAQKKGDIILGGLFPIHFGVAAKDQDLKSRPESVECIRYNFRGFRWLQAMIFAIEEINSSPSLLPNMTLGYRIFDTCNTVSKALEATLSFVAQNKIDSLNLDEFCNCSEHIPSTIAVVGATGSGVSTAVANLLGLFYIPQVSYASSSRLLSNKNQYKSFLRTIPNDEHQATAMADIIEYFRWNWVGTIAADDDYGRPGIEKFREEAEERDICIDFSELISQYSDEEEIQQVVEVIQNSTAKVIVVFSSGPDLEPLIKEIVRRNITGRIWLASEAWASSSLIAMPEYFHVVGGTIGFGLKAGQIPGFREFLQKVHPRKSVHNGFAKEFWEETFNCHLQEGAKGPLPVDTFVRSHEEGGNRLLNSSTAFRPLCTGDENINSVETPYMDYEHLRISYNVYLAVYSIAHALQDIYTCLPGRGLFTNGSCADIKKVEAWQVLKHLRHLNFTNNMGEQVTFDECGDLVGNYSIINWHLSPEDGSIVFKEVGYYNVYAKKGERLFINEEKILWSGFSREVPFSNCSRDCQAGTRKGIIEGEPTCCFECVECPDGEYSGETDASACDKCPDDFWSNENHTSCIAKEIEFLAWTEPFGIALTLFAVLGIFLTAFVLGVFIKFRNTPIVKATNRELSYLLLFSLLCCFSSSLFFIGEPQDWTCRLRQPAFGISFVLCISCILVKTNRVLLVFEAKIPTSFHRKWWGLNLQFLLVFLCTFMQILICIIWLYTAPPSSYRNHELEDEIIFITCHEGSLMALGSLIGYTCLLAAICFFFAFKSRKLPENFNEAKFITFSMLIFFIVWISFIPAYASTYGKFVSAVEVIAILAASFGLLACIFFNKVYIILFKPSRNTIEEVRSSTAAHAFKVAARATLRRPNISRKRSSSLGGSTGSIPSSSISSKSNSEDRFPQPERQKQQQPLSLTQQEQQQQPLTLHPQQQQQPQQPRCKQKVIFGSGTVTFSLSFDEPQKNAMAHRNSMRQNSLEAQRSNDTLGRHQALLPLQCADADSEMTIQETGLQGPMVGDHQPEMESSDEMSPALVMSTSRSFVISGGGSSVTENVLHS
Protocol: as §1

[6] = test system: bone marrow stromal cells (BMSC); test: phospho-ERK in bone marrow stromal cells from wild-type and GPRC6A-/- mice; type: cell-based, mouse
Protocol: The femurs and tibias from 8-week-old wild-type and GPRC6A^−/− mice were dissected, the ends of the bones were cut, and marrow was flushed out with 2 mL of ice-cold a-MEM containing 10% FBS using a needle and syringe. A suspension of bone marrow cells was obtained by repeated aspiration of the cell preparation through a 22-gauge needle, and nucleated cells were counted with a hemocytometer. Cells were seeded into 6-well plates at a density of 3×10^7 cells/mL and cultured for three days in a-MEM supplemented with 10% FBS, 100 kU/L of sodium penicillin G and 100 mg/L of streptomycin sulfate in a humidified incubator with 5% CO2 and 95% air at a temperature of 37° C. On day 3, all nonadherent cells were then removed with the first medium change and then the adherent cells (representing bone marrow-derived mesenchymal stem cells, BMSCs) were grown for additional periods of up 3 days in the same medium. After overnight quiescence, the cells were stimulated for 5 minutes by testosterone and p-estradiol at the concentrations as indicated.

osteoblastic cells = details: 10 nM; cited from earlier work
GPRC6A [7] = target: T1, GPRC6A; design: expressed in transfected cells; details: in vitro; cited from earlier work
[8] = HEK-293 cells transfected with GPRC6A
[9] = BMSC from GPRC6A-/- mice, testosterone up to 80 nM

Question: Which results are given for `COc1cccc(-c2cc(=O)c3ccccc3o2)c1N` [PD89059]?
Answer: inhibition of testosterone stimulated GPRC6A-mediated activation of phospho-ERK (GPRC6A [1]): inhibited; block of GPRC6A-mediated extracellular testosterone stimulated signaling (GPRC6A [1]): blocked; inhibition of R1881 stimulated GPRC6A-mediated activation of luciferase (GPRC6A [2]): inhibited

Question: With `C[C@]1(O)CC[C@H]2[C@@H]3CCC4=CC(=O)CCC4=C3C=C[C@@]21C` [R1881] as the compound, how does the “GPRC6A-mediated activation of phospho-ERK” value (GPRC6A [1]; [8]) read?
Answer: The value was “stimulated extracellular signal-regulated kinase phosphorylation (phospho-ERK) in a dose-dependent fashion”.

Question: What about the Src kinase activity [3] of the same compound?
Answer: The Src kinase activity was “stimulation of Src kinase activity”.

Question: And the “GPRC6A-mediated activation of phospho-Raf-1” value (GPRC6A [4])?
Answer: Its value is “stimulated”.

Question: And the “GPRC6A-mediated activation of phospho-Src” value (GPRC6A [4])?
Answer: Its value is “stimulated GPRC6A-mediated activation of phospho-Src”.

Question: And the phospho-ERK response (HEK-293 cells)?
Answer: Its phospho-ERK response is “did not responded”.

Question: What about the phospho-ERK response [5] of the same compound?
Answer: Its phospho-ERK response is “did not responded”.

Question: What about the “GPRC6A mediated activation of luciferase” value (GPRC6A [2]; SRE-luciferase reporter, HEK-293) of the same compound?
Answer: The value was “stimulated the GPRC6A mediated activation of luciferase”.

Question: What does the source list for `COc1cccc([C@@H](C)NCCCc2ccccc2Cl)c1` [NPS-R568]?
Answer: stimulation of phospho-ERK in BMSC [6, 9]: failed to responds; stimulation of phospho-ERK in BMSC ([6]; BMSC from wild-type mice): stimulation of ERK phosphorylation

Question: Which Akt activity (osteoblastic cells) does the source give for `C[C@]12CCC(=O)C[C@@H]1CC[C@@H]1[C@@H]2CC[C@]2(C)[C@@H](O)CC[C@@H]12` [DHT] here?
Answer: The Akt activity was “stimulation of Akt activity”.

Question: For `C[C@]12CC[C@H](O)CC1=CC[C@@H]1[C@@H]2CC[C@]2(C)C(=O)CC[C@@H]12` [DHEA, Dehydroandrosterone], which “GPRC6A-mediated activation of phospho-ERK” value (GPRC6A [1]; [8]) is on record?
Answer: The value was “stimulated the GPRC6A-mediated activation of phospho-ERK”.

Question: For `CC(=O)[C@H]1CC[C@H]2[C@@H]3CCC4=CC(=O)CC[C@]4(C)[C@H]3CC[C@]12C` [progesterone], which “GPRC6A-mediated activation of phospho-ERK” value (GPRC6A [1]; concentrations up to 80 nM) is on record?
Answer: The value was “no effect”.

Question: Which “functional responses of GPRC6A to extracellular calcium” value (GPRC6A [7]) does the source give for osteocalcin here?
Answer: Its value is “enhance the functional responses of GPRC6A to extracellular calcium”.

Question: Which “GPRC6A-mediated activation of phospho-ERK” value (GPRC6A [1]; [8]) does the source give for `CC(C)CCC[C@@H](C)[C@H]1CC[C@H]2[C@@H]3CC=C4C[C@@H](O)CC[C@]4(C)[C@H]3CC[C@]12C` [cholesterol] here?
Answer: The value was “stimulated the GPRC6A-mediated activation of phospho-ERK”.

Question: For `[Ca+2]` [extracellular calcium, calcium], which “stimulation of phospho-ERK in BMSC” value [6, 9] is on record?
Answer: Its value is “failed to responds”.

Question: And the “stimulation of phospho-ERK in BMSC” value ([6]; BMSC from wild-type mice)?
Answer: The value was “stimulation of ERK phosphorylation”.

Question: With `Cn1cc(C2=C(c3cn(CCCSC(=N)N)c4ccccc34)C(=O)NC2=O)c2ccccc21` [Ro31-8220] as the compound, how does the “block of GPRC6A-mediated extracellular testosterone stimulated signaling” value (GPRC6A [1]) read?
Answer: The value was “blocked”.

Question: What about the “inhibition of R1881 stimulated GPRC6A-mediated activation of luciferase” value (GPRC6A [2]) of the same compound?
Answer: The value was “inhibited”.

Question: For `COc1ccc2c(c1)CC[C@@H]1[C@@H]2CC[C@]2(C)[C@@H](NCCCCCCN3C(=O)C=CC3=O)CC[C@@H]12` [U73122], which “inhibition of testosterone stimulated GPRC6A-mediated activation of phospho-ERK” value (GPRC6A [1]) is on record?
Answer: The value was “inhibited”.

Question: With `Cc1ccc(-c2nn(C(C)(C)C)c3ncnc(N)c23)cc1` [PP-1] as the compound, how does the “inhibition of testosterone stimulated GPRC6A-mediated activation of phospho-ERK” value (GPRC6A [1]) read?
Answer: Its value is “inhibited”.

Question: What about the “block of GPRC6A-mediated extracellular testosterone stimulated signaling” value (GPRC6A [1]) of the same compound?
Answer: Its value is “blocked”.

Question: What about the “inhibition of R1881 stimulated GPRC6A-mediated activation of luciferase” value (GPRC6A [2]) of the same compound?
Answer: The value was “inhibited”.

Question: For pertussis toxin, which “block of testosterone and β-estradiol stimulated activation of phospho-ERK” value (GPRC6A [1]; 100 ng/ml PTx, stimuli at 50 nM) is on record?
Answer: The value was “significantly blocked”.

Question: With `C[C@]12CC[C@@H]3c4ccc(O)cc4CC[C@H]3[C@@H]1CC[C@@H]2O` [17p-estradiol] as the compound, how does the “GPRC6A-mediated activation of phospho-ERK” value (GPRC6A [1]; [8]) read?
Answer: The value was “stimulated the GPRC6A-mediated activation of phospho-ERK”.

Question: And the “concentration required to activate GPRC6A (phosphorylation of ERK)” value (GPRC6A [1]; [8])?
Answer: The value was 60 to 80 nM.

Question: With `C=C1/C(=C\C=C2/CCC[C@]3(C)[C@@H]([C@H](C)CCCC(C)(C)O)CC[C@@H]23)C[C@@H](O)C[C@@H]1O` [1,25(OH)2Vit D3] as the compound, how does the “GPRC6A-mediated activation of phospho-ERK” value (GPRC6A [1]; [8]) read?
Answer: The value was “stimulated the GPRC6A-mediated activation of phospho-ERK”.
